Experimental findings from patent publication US11072596B2, “Poly(ADP-ribose) polymerase inhibitor, preparation method and use” (SELECTION BIOSCIENCE LLC, priority 2017, dated 2021) are described below.

The test addresses T1, PARP1 (Homo sapiens, UniProt P09874).
T1 construct: purchased BPS 80580
In words: PARP1 Colorimetric Assay (PARP-1 kinase inhibitory activity). The class given is biochemical. Particulars: PARP1 colorimetric assay kit, 1 hour at room temperature; read-out: PARP1 (in vitro enzymatic inhibitory activity, IC50). The method, then: PARP1 kinase activity was tested by the following method:
PARP1 Colorimetric Assay Kit (BPS, Cat #80580)
1. PARP1 Colorimetric Assay
2) 50 μL of diluted coating solution was added to each well for overnight at 4° C.
4) 200 μL of blocking buffer was added to each well and incubated at room temperature for 90 minutes.
1) A reaction solution was prepared in a ratio of […] 2.5 μL 10×PARP buffer+2.5 μL 10×PARP Assay mixture+5 μL Activated DNA+15 μL deionized water per well, and 25 μL of the reaction solution was added to each well (see Table 1).
4) 100 μL of colorimetric HRP substrate was added to each well and reacted at room temperature for 20 minutes.
5) 100 μL of 2 M H2SO4 was added to each well and OD 450 nm was read on a microplate reader.

T1 sequence (P09874 whole entry): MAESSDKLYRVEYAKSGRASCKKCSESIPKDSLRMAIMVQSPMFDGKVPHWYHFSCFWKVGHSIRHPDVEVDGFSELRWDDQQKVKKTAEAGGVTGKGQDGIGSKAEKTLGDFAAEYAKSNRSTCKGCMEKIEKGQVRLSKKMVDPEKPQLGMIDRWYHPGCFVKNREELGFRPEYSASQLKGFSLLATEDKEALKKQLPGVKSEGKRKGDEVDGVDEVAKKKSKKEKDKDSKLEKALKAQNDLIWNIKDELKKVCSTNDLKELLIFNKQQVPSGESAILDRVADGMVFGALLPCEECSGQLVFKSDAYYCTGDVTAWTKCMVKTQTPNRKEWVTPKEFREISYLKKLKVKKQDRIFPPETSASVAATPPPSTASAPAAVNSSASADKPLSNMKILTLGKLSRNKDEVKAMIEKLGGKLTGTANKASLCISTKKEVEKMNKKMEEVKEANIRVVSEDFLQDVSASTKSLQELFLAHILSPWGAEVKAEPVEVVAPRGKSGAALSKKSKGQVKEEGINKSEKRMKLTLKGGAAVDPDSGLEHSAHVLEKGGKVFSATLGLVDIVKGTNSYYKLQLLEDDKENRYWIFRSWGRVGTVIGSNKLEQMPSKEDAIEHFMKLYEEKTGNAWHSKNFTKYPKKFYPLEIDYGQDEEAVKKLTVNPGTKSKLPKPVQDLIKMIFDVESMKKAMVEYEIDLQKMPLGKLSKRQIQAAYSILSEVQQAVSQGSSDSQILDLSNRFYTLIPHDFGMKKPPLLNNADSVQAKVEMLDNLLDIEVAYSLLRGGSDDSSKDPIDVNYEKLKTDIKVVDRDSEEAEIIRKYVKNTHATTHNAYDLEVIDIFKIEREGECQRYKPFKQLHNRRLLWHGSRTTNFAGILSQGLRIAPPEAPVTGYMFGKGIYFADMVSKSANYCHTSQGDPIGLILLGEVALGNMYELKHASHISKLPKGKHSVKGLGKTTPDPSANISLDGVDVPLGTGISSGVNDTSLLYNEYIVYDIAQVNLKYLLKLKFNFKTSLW

For `NC(=O)c1cccc2cn(-c3ccc(C4(F)CCCNC4)cc3)nc12` (racemic) [Example 22, 2-(4-(3-Fluoropiperidin-3-yl)phenyl)-2H-indazole-7-carboxamide], the IC50 (as a rule, the point on the concentration scale where inhibition reaches its midpoint) is less than 100 nM.
As to `CC1(c2ccc(-n3cc4cccc(C(N)=O)c4n3)cc2)CCCNC1` (racemic) [Example 43, 2-(4-(3-Methylpiperidin-3-yl)phenyl)-2H-indazole-7-carboxamide], the IC50 lay within 100 to 500 nM.
With `C[C@]1(c2ccc(-n3cc4cccc(C(N)=O)c4n3)cc2)CCCNC1` (single isomer, unassigned) [Example 45, (R or S)-2-(4-(3-methylpiperidin-3-yl)phenyl)-2H-indazole-7-carboxamide], the IC50 was 100 to 500 nM.
Consider `[2H]C1(c2ccc(-n3cc4cc(F)cc(C(N)=O)c4n3)cc2)CCCNC1` (stereo not shown) [Example 4], for which the IC50 was less than 100 nM.
Consider `[2H][C@@]1(c2ccc(-n3cc4cc(F)cc(C(N)=O)c4n3)cc2)CCCNC1` [Example 5], for which the IC50 was less than 100 nM.
Take `[2H][C@]1(c2ccc(-n3cc4cc(F)cc(C(N)=O)c4n3)cc2)CCCNC1` [Example 6]: the IC50 was less than 100 nM.
Regarding `[2H]C1(c2ccc(-n3cc4cccc(C(N)=O)c4n3)cc2F)CCCNC1` (stereo not shown) [Example 7], the concentration for half-maximal inhibition (IC50) is less than 100 nM.
Next, `[2H][C@]1(c2ccc(-n3cc4cccc(C(N)=O)c4n3)cc2F)CCCNC1` [Example 8]: less than 100 nM; `[2H][C@@]1(c2ccc(-n3cc4cccc(C(N)=O)c4n3)cc2F)CCCNC1` [Example 9]: less than 100 nM; `[2H]C1(c2ccc(-n3nc4c(C(N)=O)cccc4c3F)cc2)CCCNC1` (stereo not shown) [Example 10]: 100 to 500 nM.
On to `[2H][C@]1(c2ccc(-n3nc4c(C(N)=O)cccc4c3F)cc2)CCCNC1` [Example 11], for which the half-maximal inhibitory concentration (IC50) is 100 to 500 nM.
With `[2H][C@@]1(c2ccc(-n3nc4c(C(N)=O)cccc4c3F)cc2)CCCNC1` [Example 12], the IC50 fell in the range of 100 to 500 nM.
Next, `[2H]C1(c2ccc(-n3cc4cccc(C(N)=O)c4n3)c(F)c2)CCCNC1` (stereo not shown) [Example 13]: 100 to 500 nM.
Take `[2H][C@]1(c2ccc(-n3cc4cccc(C(N)=O)c4n3)c(F)c2)CCCNC1` [Example 14]: the IC50 lay within 100 to 500 nM.
With `[2H][C@@]1(c2ccc(-n3cc4cccc(C(N)=O)c4n3)c(F)c2)CCCNC1` [Example 15], the IC50 was in the range of 100 to 500 nM.
Consider `[2H]C1(c2ccc(-n3cc4cc(F)cc(C(N)=O)c4n3)cc2F)CCCNC1` (stereo not shown) [Example 16], for which the half-maximal inhibitory concentration (IC50) was less than 100 nM.
For `[2H][C@@]1(c2ccc(-n3cc4cc(F)cc(C(N)=O)c4n3)cc2F)CCCNC1` [Example 17], the IC50 was less than 100 nM.
On to `[2H][C@]1(c2ccc(-n3cc4cc(F)cc(C(N)=O)c4n3)cc2F)CCCNC1` [Example 18], for which the IC50 was less than 100 nM.
For the compound `[2H]C1(c2ccc(-n3cc4cc(F)cc(C(N)=O)c4n3)c(F)c2)CCCNC1` (stereo not shown) [Example 19], the IC50 is less than 100 nM.
On to `[2H][C@@]1(c2ccc(-n3cc4cc(F)cc(C(N)=O)c4n3)c(F)c2)CCCNC1` [Example 20], for which the IC50 is less than 100 nM.
In the case of `[2H][C@]1(c2ccc(-n3cc4cc(F)cc(C(N)=O)c4n3)c(F)c2)CCCNC1` [Example 21], the IC50 was less than 100 nM.
Consider `NC(=O)c1cc(F)cc2cn(-c3ccc(C4(F)CCCNC4)cc3)nc12` (stereo not shown) [Example 25], for which the IC50 was less than 100 nM.
On to `NC(=O)c1cc(F)cc2cn(-c3ccc([C@]4(F)CCCNC4)cc3)nc12` [Example 26], for which the half-maximal inhibitory concentration (IC50) is less than 100 nM.
`NC(=O)c1cc(F)cc2cn(-c3ccc([C@@]4(F)CCCNC4)cc3)nc12` [Example 27]: the IC50 is less than 100 nM.
Next, `NC(=O)c1cccc2cn(-c3ccc(C4(F)CCCNC4)c(F)c3)nc12` (stereo not shown) [Example 28]: less than 100 nM; `NC(=O)c1cccc2cn(-c3ccc([C@@]4(F)CCCNC4)c(F)c3)nc12` [Example 29]: less than 100 nM; `NC(=O)c1cccc2c(F)n(-c3ccc([C@]4(F)CCCNC4)cc3)nc12` [Example 30]: less than 100 nM.
Regarding `NC(=O)c1cccc2c(F)n(-c3ccc(C4(F)CCCNC4)cc3)nc12` (stereo not shown) [Example 31], the IC50 lay in the range of 100 to 500 nM.
